In US20250090466A1, “DRUG DELIVERY COMPOSITIONS AND DEVICES” (Ohio State Innovation Foundation, priority 2022, published 2025):

Assays:
[1] = Rose Bengal release from dense PCL capsules with silicone oil carriers into PBS; format: physicochemical; settings: Silikon 1000 in dense PCL capsule
[2] = assumed input value, ref (20); cited from earlier work

O=C([O-])c1c(Cl)c(Cl)c(Cl)c(Cl)c1-c1c2cc(I)c(=O)c(I)c-2oc2c(I)c([O-])c(I)cc12.[Na+].[Na+] [Rose Bengal, Rose Bengal sodium salt]
dissolution of Rose Bengal in hydrophobic silicone oil [1]: never dissolves in the oil | RB diffusivity in PBS [2]: 4.8×10^−10 m^2 s^−1
